Earlier results as cited in US8759352B2, “1-(4-ureidobenzoyl)piperazine derivatives” (Merck Sharp & Dohme B.V., priority 2008, dated 2014).

Assays:
[1] = system: vascular smooth muscle cell; conditions: in vitro and in vivo; Blaschke et al. 2004
tumours = conditions: animal model of prostate cancer; Chuu et al. 2006
β-amyloid = conditions: Riddell et al. 2007
neointima formation = conditions: in vitro and in vivo; Blaschke et al. 2004

## O=S(=O)(c1ccccc1)N(CC(F)(F)F)c1ccc(C(O)(C(F)(F)F)C(F)(F)F)cc1 [Example T0901317]
[1]
  vascular smooth muscle cell proliferation: inhibit
tumours
  progression of tumours: delayed progression of tumours
β-amyloid
  deposition of β-amyloid: lower deposition of β-amyloid
  memory: improve memory
Neointima formation
  neointima formation following balloon injury: inhibit
